Reference: patent publication US20260109731A1, “NE[…] USE THEREOF” (HUNAN MINGRUI PHARMACEUTICAL CO., LTD., priority 2023, published 2026)
Where “and” joins values, the source holds several entries; their conditions need not be identical. Identical values can stand only once.

Test: In vitro phase I metabolic stability in male SD rat hepatic microsomes
Type: in vitro ADME
Settings: for Peak area ratio (test compound/testosterone-D3 (internal standard)), mean value: mean of triplicate; for Peak area ratio (test compound/testosterone-D3 (internal standard)): single replicates -1, -2, -3
Procedure: Phase I metabolic stability kit (purchased from HUIZHI HEYUAN BIOTECHNOLOGY (BEIJING) CO., LTD), with the following components of the product:
Positive substrate testosterone solution (10 mM): diluted with acetonitrile to prepare a 200 μM solution for later use; stop solution & internal standard (testosterone-D3): dissolved with acetonitrile to prepare a 5 ng/mL solution for later use.
• 1) all components of the kit were thawed in an ice bath and placed on ice for later use; • 2) an incubation system (taking 200 μL system as an example) was prepared:
• 3) 160 μL of pre-incubation solution B was added into the centrifuge tube containing 40 μL of pre-incubation solution A, uniform mixing was performed by pipetting three times, and the resulting mixture was immediately placed in a water bath at 37° C. for incubation and timing was started; • 4) at predetermined incubation time points (0, 5, 10, 15, 30, 45, 60 minutes), the incubation solution was quantitatively taken out, and 200 μL of stop solution (5 ng/mL testosterone-D3 in acetonitrile, pre-chilled at 4° C.) was added to terminate the reaction (stop solution volume: incubation system volume=1:1). Experimental samples were prepared in triplicate at each time point.
To verify the validity of the experiment, a positive control group was established concurrently in the whole experiment to evaluate whether the incubation system functioned properly, with the preparation method as follows: the compound to be tested was replaced with the positive substrate testosterone (200 μM in acetonitrile) from the phase I metabolic stability kit, and the other components of the incubation system and experimental method were the same as those of the experimental group.
The ratio of the chromatographic peak area of the compound to be tested to the chromatographic peak area of the testosterone-D3 (internal standard) was used as the calculated data. By taking the peak area ratio at time zero of the test compound as 100%, the remaining percentages were calculated by comparing the peak area ratio at each time point with the peak area ratio at time zero, and the natural logarithms of the remaining percentages of the substrate at each time point are then subjected to linear regression against the incubation times to obtain the slope k. Therefore, the in vitro metabolic half-life (T1/2) and intrinsic clearance (CLint) were calculated using the following formulas: […]

**Q.** What does the source list for `C[C@]12CC[C@H]3[C@@H](CCC4=CC(=O)CC[C@@]43C)[C@@H]1CC[C@@H]2O` [Positive control, testosterone]?
**A.** Peak area ratio (test compound/testosterone-D3 (internal standard)), mean value (incubation time 0 min): 20.01; Peak area ratio (test compound/testosterone-D3 (internal standard)) (incubation time 0 min): 20.12 and 19.58 and 20.33; Peak area ratio (test compound/testosterone-D3 (internal standard)), mean value (incubation time 10 min): 0.06; Peak area ratio (test compound/testosterone-D3 (internal standard)) (incubation time 10 min): 0.05 and 0.08 and 0.06
